Key:
[1] = molecular target: T1, human recombinant 5-lipoxygenase (Homo sapiens, UniProt P09917); assay: 5-Lipoxygenase enzyme assay; format: biochemical; conditions: 70 μM arachidonic acid, pH 7.4
T1 construct: purchased Cayman 60402
T1 sequence (P09917 1-674): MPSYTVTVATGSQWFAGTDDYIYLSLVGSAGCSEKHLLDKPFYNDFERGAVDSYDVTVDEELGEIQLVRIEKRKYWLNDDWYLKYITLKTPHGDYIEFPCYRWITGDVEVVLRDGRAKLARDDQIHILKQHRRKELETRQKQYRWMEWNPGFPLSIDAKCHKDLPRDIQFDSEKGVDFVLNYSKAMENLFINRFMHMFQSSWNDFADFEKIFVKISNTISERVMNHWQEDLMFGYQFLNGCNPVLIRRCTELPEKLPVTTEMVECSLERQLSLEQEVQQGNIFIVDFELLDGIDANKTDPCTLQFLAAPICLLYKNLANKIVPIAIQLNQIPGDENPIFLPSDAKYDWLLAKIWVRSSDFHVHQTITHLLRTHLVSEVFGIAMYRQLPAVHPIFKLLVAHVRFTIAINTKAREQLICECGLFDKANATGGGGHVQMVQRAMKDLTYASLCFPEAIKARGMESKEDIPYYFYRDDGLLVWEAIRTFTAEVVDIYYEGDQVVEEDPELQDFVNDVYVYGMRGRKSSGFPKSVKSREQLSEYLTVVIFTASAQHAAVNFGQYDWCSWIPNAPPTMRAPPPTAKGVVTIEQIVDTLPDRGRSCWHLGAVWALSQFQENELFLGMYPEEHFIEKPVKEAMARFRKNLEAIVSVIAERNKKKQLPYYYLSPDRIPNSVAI
Procedure, shortened: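 Human recombinant 5-LO (0.5 U) with compound in 50 mM Tris-HCl pH 7.4 reacted with 70 μM arachidonic acid for 10 min at room temperature. Hydroperoxide formation was read via FOX xylenol orange complex at 620 nm after 1 h; compounds at 5 concentrations from 10 μM, in triplicate.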

[2] = system: MPTP treated C57/BL6 mice; assay: MPTP animal model, pole test; format: in vivo, mouse; conditions: for effect on the functional deficit produced by MPTP: 30 mg/kg/day, each of days 1-3
Description: MPTP/MPP^+-induced neurodegeneration of dopaminergic neurons is a well characterized model which is therefore widely used to understand the pathogenesis of Parkinson's disease. The compounds were tested against MPTP/MPP^+ induced neuronal death in vitro and in vivo as shown in the following examples. In vitro evaluation of protection against mitochondrial dysfunction is carried out using substantia nigra-derived dopaminergic progenitor cell line (as described in Son J H, et al J W. (1999) J Neurosci, 19:10-20), exposed to 1-methyl-4-phenylpyridinium (MPP^+). In vivo evaluation was carried out using mice that had been treated with 1-methyl-4-phenyl-1,2,3,6-tetrahydropyridine (MPTP), a neurotoxin. […] In a number of species, including humans, […] and rodents, MPTP produces an irreversible and severe parkinsonian syndrome which includes virtually all the clinical features of the disease.
Male C57/BL6 mice (Harlan, Ind.), weight 25-30 g, were used in all studies. MPTP-HCl (Sigma) was administered i.p. according to one of the following protocols. The maximum volume which was given per injection is 200 μL. In all studies, animals were euthanized with carbon dioxide and, brains removed for subsequent determination of dopamine depletion where appropriate.
The pole test evaluates motor co-ordination.
A rough surfaced metal pole (diameter 8 mm, height 50 cm) protruding from a cage filled with animal bedding was used for this test. Animals were placed head upwards at the top of the pole. They were required to turn and descend face downwards and the time taken for this was recorded (latency to reach bedding). Timing was started when the individual animal gripped the top of the pole and was stopped when all four limbs contacted the bedding.
All test compounds were administered ip. The maximum volume which was given per injection was 200 μL. Compounds were dosed up to twice daily, two days prior and 7 days post MPTP treatment.
A baseline reading was taken for each animal one day prior to MPTP treatment. All subsequent readings were normalized to the individual animal's baseline. Values were expressed as a percent baseline.
Data is percent baseline and expressed as mean±std dev: […]
Compound and vehicle given for 9 days in total, 2 days prior to MPTP and 7 days after MPTP treatment. L-DOPA given 1 hour prior to the pole test each day.

[3] = system: IL-1beta production in mouse microglial cell line; assay: Interleukin-1β microglial cell assay; format: cell-based; conditions: LPS 10 μg/ml and IFN gamma 10 ng/ml, 24 hours, read-out: EC50, inhibition of IL-1beta production
Description: This assay measures the release of IL-1β from a mouse microglial cell line following an inflammatory challenge with LPS and interferon-gamma. The ability of test articles to inhibit microglial cell activation and IL-1β release is determined by co-incubation of the test article with the inflammatory challenge.
Mouse microglial cells were seeded in poly-D-lysine coated 96-well plates at a density of 10,000 cells/well and allowed to attach for 24 hours. Cells were stimulated by addition of LPS (10 μg/ml) and IFN gamma (10 ng/ml) in the presence or absence of test article. The cells were then incubated for 24 hours at 37° C., after which time the media was removed and used for cytokine determination as described below.
Viability of mouse microglial cells after exposure to the test article was determined using a fluorescent viability dye, Cell Tracker Green. Cell Tracker Green was used at a working concentration of 5 μM in 1×HBSS. Cells were washed once with HBSS (200 μl/well) and 100 μl Cell Tracker Green was added to each well. Cells were then incubated at 37° C. for 30 minutes, after which time the Cell Tracker was removed and the cells were washed once with HBSS (200 μl/well). 100 μl fresh HBSS was added to each well and the plate was read on a Fluoroskan plate reader using an excitation wavelength of 485 nm and an emission wavelength of 538 nm.
Solutions: • Wash Buffer: PBS 1 L+500 μl Tween 20 (final 0.05%) pH 7.2-7.4. • Blocking Buffer: 500 ml PBS+5 g BSA V (1%)+25 g Sucrose (5%)+0.25 g Sodium Azide (0.05%). • Reagent Diluent: 500 ml PBS+5 g BSA V (1%) pH 7.2-7.4 and filter sterilize through 0.2 μm. • Stop Solution: 2N sulfuric acid.
Duo Set Preparations: • 1. The IL-1β capture antibody was reconstituted in 1 ml of PBS to give a final concentration of 720 μg/ml, and the working concentration was 4 μg/ml. For coating one 96-well plate (at 100 μl/well) 56 μl of the 720 μg/ml stock was diluted into 10 ml of PBS. • 2. The IL-1β standards were reconstituted in 0.5 ml of Reagent Diluent (70 ng/ml). For a high standard of 1 ng/ml (2 wells at 100 μl each+enough for series dilution) 7.1 μl of the 70 ng/ml standard were diluted into 0.5 ml of Reagent Diluent • 3. The IL-1β detection antibody was reconstituted in 1 ml of Reagent Diluent to give a final concentration of 18 μg/ml and the working concentration is 100 ng/ml. For one 96-well plate (at 100 μl/well) 56 μl of the 18 μg/ml stock was diluted into 10 ml of Reagent Diluent.
• The Costar EIA Hi-binding plate was coated with capture antibody at 4 μg/ml. Each well was coated with 100 μl, and the plate was sealed and incubated overnight at room temperature. • Each well was aspirated and washed 3× with Wash Buffer. Each well was filled to the top, dispensed, and any remaining buffer was removed by inverting the plate and gently blotting against clean paper towels. • Non-specific binding sites were blocked by adding 300 μl of Blocking Buffer to each well, and after sealing incubating for at least 1 hour at room temperature. • After washing the plate was now ready for the samples. Assay Procedure: • 100 μl of either standard or sample were added in each well of the capture-coated and pre-blocked plate. The plate was sealed and incubated for 2 hours at room temperature, followed with washing. • 100 μl of the detection antibody (10 ng/ml) were added to each well. […]

[4] = system: dopaminergic neuronal cell line; assay: High glutamate-induced oxidative stress assay (HGOS); format: cell-based; conditions: Mus musculus; 30 mM glutamate, 16 hrs; read-out: EC50, protection against HGOS cell injury and cell death
Procedure, shortened: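 Mouse dopaminergic cells (passage ≤ p11) were grown 72 h at 33 °C, washed in HBSS, then exposed 16 h at 37 °C to compounds in DMEM-No Glu with 1 mM glucose and 30 mM glutamate. Surviving cells were stained 30 min with 5 μM Cell Tracker Green and fluorescence read at 485/538 nm.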

[5] = L-DOPA given 1 hour prior to the pole test, mean±std dev

Row | SMILES | effect on the functional deficit produced by MPTP [2] | EC50 [3] | other results
1 | COC(=O)CCC1(C)CCc2cc(O)c3c(c2O1)C1CCC3C1 (stereo not shown) [3-(6-Hydroxy-2-methyl-3,4,7,8,9,10-hexahydro-7,10-methano-2H-benzo[h]chromen-2-yl)-propionic Acid Methyl Ester] | significantly reduced the functional deficit produced by MPTP | – | IC50 [1]: ≤ 5 µM
2 | CC1(CCC(=O)O)CCc2cc(O)c3c(c2O1)C1CCC3C1 (stereo not shown) [3-(6-Hydroxy-2-methyl-3,4,7,8,9,10-hexahydro-7,10-methano-2H-benzo[h]chromen-2-yl)-propionic Acid] | significantly reduced the functional deficit produced by MPTP | – | –
3 | CC1(CCC(=O)O)CCc2cc(O)c3c(c2O1)C1CCCC3CC1 (stereo not shown) [3-(6-Hydroxy-2-methyl-3,4,7,8,9,10-hexahydro-7,10-propano-2H-benzo[h]chromen-2-yl)-propionic Acid] | – | ≤ 20 µM | –
4 | CC(C)=CCc1c(O)c2c(c3c1CCC(C)(CCC(=O)O)O3)C1CCC2C1 (stereo not shown) [3-[6-hydroxy-2-methyl-5-(3-methyl-but-2-enyl)-3,4,7,8,9,10-hexahydro-7,10-methano-2H-benzo[h]chromen-2-yl]-propionic acid] | – | ≤ 20 µM | –
5 | CC(=O)Oc1c(CC=C(C)C)c2c(c3c1C1CCC3C1)OC(C)(C)CC2 (stereo not shown) [Acetic acid 2,2-dimethyl-5-(3-methyl-but-2-enyl)-3,4,7,8,9,10-hexahydro-7,10-methano-2H-benzo[h]chromen-6-yl ester] | – | ≤ 20 µM | EC50 [4]: ≤ 1 µM
6 | N[C@@H](Cc1ccc(O)c(O)c1)C(=O)O [L-DOPA] | – | – | pole test, percent baseline, Day 1 [2, 5]: 110 ± 13.2 percent baseline; pole test, percent baseline, Day 2 [2, 5]: 97.9 ± 20.0 percent baseline; pole test, percent baseline, Day 3 [2, 5]: 100.1 ± 14.8 percent baseline

From patent publication US7875607B2, “7,8-bicycloakyl-chroman derivatives” (Ampere Life Sciences, Inc., priority 2004, dated 2011)
